Assay results as given in US10294202B2, “Pyrrolidinones as herbicides” (FMC Corporation, priority 2013, dated 2019).

How the values were obtained:
rice = experiment: Test B flooded paddy test; type: in vivo, Oryza sativa; conditions: Flood, scale of 0 to 100 where 0 is no effect and 100 is complete control
Procedure, shortened: (§1)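 Paddy-water application at a 3 cm flood, young plants having two leaves. Water level maintained; greenhouse, 13–15 days; visual 0–100 control rating.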

ducksalad = experiment: Test B flooded paddy test; type: in vivo, Heteranthera limosa; conditions: Flood, scale of 0 to 100 where 0 is no effect and 100 is complete control
Procedure, shortened: as §1

corn = experiment: Test A pre-/postemergence herbicide test; type: in vivo, Zea mays
Procedure, shortened: (§2)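 Greenhouse pot test with pre- and postemergence application of surfactant-containing solvent formulations. Postemergence plants were 2–10 cm, one- to two-leaf stage. Response scored visually after ~10 days, 0 (no effect) to 100 (complete control).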

barnyardgrass [1] = experiment: Test A pre-/postemergence herbicide test; type: in vivo, Echinochloa crus-galli
Procedure, shortened: as §2

giant foxtail = experiment: Test A pre-/postemergence herbicide test; type: in vivo, Setaria faberii
Procedure, shortened: as §2

sedge, umbrella = experiment: Test B flooded paddy test; type: in vivo, Cyperus difformis; conditions: Flood, scale of 0 to 100 where 0 is no effect and 100 is complete control
Procedure, shortened: as §1

velvetleaf = experiment: Test A pre-/postemergence herbicide test; type: in vivo, Abutilon theophrasti
Procedure, shortened: as §2

barnyardgrass [2] = experiment: Test B flooded paddy test; type: in vivo, Echinochloa crus-galli; conditions: Flood, scale of 0 to 100 where 0 is no effect and 100 is complete control
Procedure, shortened: as §1

crabgrass, large = experiment: Test A pre-/postemergence herbicide test; type: in vivo, Digitaria sanguinalis
Procedure, shortened: as §2

pigweed = experiment: Test A pre-/postemergence herbicide test; type: in vivo, Amaranthus retroflexus
Procedure, shortened: as §2

morningglory = experiment: Test A pre-/postemergence herbicide test; type: in vivo, Ipomoea spp.
Procedure, shortened: as §2

wheat = experiment: Test A pre-/postemergence herbicide test; type: in vivo, Triticum aestivum
Procedure, shortened: as §2

[3] = Postemergence, 125 g ai/ha, 0 to 100 scale, 0 is no effect, 100 is complete control
[4] = Postemergence, 500 g ai/ha, 0 to 100 scale (0 no effect, 100 complete control)
[5] = Preemergence, 125 g ai/ha, 0 to 100 scale where 0 is no effect and 100 is complete control
[6] = preemergence, 500 g ai/ha, 0 to 100 scale, 0 is no effect and 100 is complete control
[7] = Postemergence, 125 g ai/ha, visual rating on 0 to 100 scale (0 no effect, 100 complete control), approx. 10 days

| Structure (SMILES) | Plant response rating, Corn (corn; [3]) | Plant response rating, Corn (corn; [4]) | Plant response rating, Corn (corn; [5]) | Plant response rating, Corn (corn; [6]) | Plant response rating, Barnyardgrass (barnyardgrass [1]; [3]) | Plant response rating, Barnyardgrass (barnyardgrass [1]; [4]) | Plant response rating, Barnyardgrass (barnyardgrass [1]; [5]) | Plant response rating, Barnyardgrass (barnyardgrass [1]; [6]) | Plant response rating, Foxtail, Giant (giant foxtail; [3]) | Plant response rating, Foxtail, Giant (giant foxtail; [4]) | Plant response rating, Foxtail, Giant (giant foxtail; [5]) | Plant response rating, Foxtail, Giant (giant foxtail; [6]) | Plant response rating, Velvetleaf (velvetleaf; [6]) | Plant response rating, Crabgrass, Large (crabgrass, large; [3]) | Plant response rating, Crabgrass, Large (crabgrass, large; [4]) | Plant response rating, Crabgrass, Large (crabgrass, large; [5]) | Plant response rating, Crabgrass, Large (crabgrass, large; [6]) | Plant response rating, Pigweed (pigweed; [4]) | Plant response rating, Pigweed (pigweed; [5]) | Plant response rating, Pigweed (pigweed; [6]) | further results |
| --- | --- | --- | --- | --- | --- | --- | --- | --- | --- | --- | --- | --- | --- | --- | --- | --- | --- | --- | --- | --- | --- |
| O=C1NCC(c2ccc(OC(F)(F)F)cc2)C1C(=O)Nc1ccccc1C(F)(F)F (racemic) [Compound 258] | 0 | 20 | 0 | 0 | 40 | 80 | 20 | 90 | 60 | 80 | 50 | 90 | 0 | 80 | 90 | 90 | 90 | 0 | 0 | 0 | Plant response rating, Rice (rice; 250 g ai/ha): 0; Plant response rating, Ducksalad (ducksalad; 250 g ai/ha): 60; Plant response rating, Sedge, Umbrella (sedge, umbrella; 250 g ai/ha): 40; Plant response rating, Velvetleaf (velvetleaf; [3]): 0; Plant response rating, Velvetleaf (velvetleaf; [4]): 0; Plant response rating, Velvetleaf (velvetleaf; [5]): 0; Plant response rating, Barnyardgrass (barnyardgrass [2]; 250 g ai/ha): 0; Plant response rating, Pigweed (pigweed; [3]): 0; Plant response rating, Morningglory (morningglory; [3]): 0; Plant response rating, Morningglory (morningglory; [4]): 0; Plant response rating, Morningglory (morningglory; [5]): 0; Plant response rating, Morningglory (morningglory; [6]): 0; Plant response rating, Wheat (wheat; [3]): 0; Plant response rating, Wheat (wheat; [4]): 30; Plant response rating, Wheat (wheat; [5]): 0; Plant response rating, Wheat (wheat; [6]): 0 |
| O=C1NCC(c2ccc(C(F)(F)F)cc2F)C1C(=O)Nc1cccc(F)c1F (racemic) [Compound 260] | 0 | 0 | 0 | 10 | 70 | 80 | 70 | 80 | 80 | 90 | 80 | 90 | 40 | 90 | 90 | 90 | 90 | 70 | 60 | 80 | Plant response rating, Rice (rice; 1000 g ai/ha): 0; Plant response rating, Ducksalad (ducksalad; 1000 g ai/ha): 95; Plant response rating, Sedge, Umbrella (sedge, umbrella; 1000 g ai/ha): 0; Plant response rating, Barnyardgrass (barnyardgrass [2]; 1000 g ai/ha): 0; Plant response rating, Pigweed (pigweed; [3]): 60; Plant response rating, Morningglory (morningglory; [3]): 0; Plant response rating, Morningglory (morningglory; [4]): 50; Plant response rating, Morningglory (morningglory; [5]): 20; Plant response rating, Morningglory (morningglory; [6]): 50; Plant response rating, Wheat (wheat; [3]): 0; Plant response rating, Wheat (wheat; [4]): 0; Plant response rating, Wheat (wheat; [5]): 0; Plant response rating, Wheat (wheat; [6]): 0 |
| O=C1NCC(c2ccc(C(F)(F)F)cc2F)C1C(=O)Nc1ccccc1C(F)(F)F (racemic) [Compound 261] | 0 | 0 | 0 | 0 | 0 | 50 | 0 | 0 | 0 | 60 | 10 | 70 | 0 | 70 | 80 | 80 | 90 | 40 | 0 | 0 | Plant response rating, Rice (rice; 1000 g ai/ha): 0; Plant response rating, Ducksalad (ducksalad; 1000 g ai/ha): 90; Plant response rating, Sedge, Umbrella (sedge, umbrella; 1000 g ai/ha): 0; Plant response rating, Velvetleaf (velvetleaf; [3]): 0; Plant response rating, Velvetleaf (velvetleaf; [4]): 30; Plant response rating, Velvetleaf (velvetleaf; [5]): 0; Plant response rating, Barnyardgrass (barnyardgrass [2]; 1000 g ai/ha): 0; Plant response rating, Pigweed (pigweed; [3]): 0; Plant response rating, Morningglory (morningglory; [3]): 0; Plant response rating, Morningglory (morningglory; [4]): 0; Plant response rating, Morningglory (morningglory; [5]): 0; Plant response rating, Morningglory (morningglory; [6]): 0; Plant response rating, Wheat (wheat; [3]): 0; Plant response rating, Wheat (wheat; [4]): 0; Plant response rating, Wheat (wheat; [5]): 0; Plant response rating, Wheat (wheat; [6]): 0 |
| O=C1NCC(c2ccc(Cl)c(C(F)(F)F)c2)C1C(=O)Nc1ccccc1F (racemic) [Compound 267] | 40 | 70 | 0 | 0 | 70 | 80 | 70 | 80 | 70 | 80 | 80 | 90 | 0 | 80 | 90 | 90 | 90 | 60 | 0 | 50 | Plant response rating, Rice (rice; 1000 g ai/ha): 15; Plant response rating, Ducksalad (ducksalad; 1000 g ai/ha): 100; Plant response rating, Sedge, Umbrella (sedge, umbrella; 1000 g ai/ha): 0; Plant response rating, Velvetleaf (velvetleaf; [7]): 30; Plant response rating, Velvetleaf (velvetleaf; [5]): 0; Plant response rating, Barnyardgrass (barnyardgrass [2]; 1000 g ai/ha): 20; Plant response rating, Pigweed (pigweed; [7]): 0; Plant response rating, Morningglory (morningglory; [7]): 0; Plant response rating, Morningglory (morningglory; [4]): 60; Plant response rating, Morningglory (morningglory; [5]): 0; Plant response rating, Morningglory (morningglory; [6]): 0; Plant response rating, Wheat (wheat; [7]): 0; Plant response rating, Wheat (wheat; [4]): 0; Plant response rating, Wheat (wheat; [5]): 0; Plant response rating, Wheat (wheat; [6]): 0 |
